Measured values: patent publication US20110045103A1, “METHODS FOR TREATING AIDS” (priority 2009, published 2011)

Key:
[1] = test system: MT-2 cells (human T-cell leukemia cells); test: Cytotoxicity control of the virucidal assay; assay type: cell-based; details: ten minute exposure
Method: (§1) Test Cultures: MT-2 cells (human T-cell leukemia cells) were obtained through the AIDS Research and Reference Reagent Program, Division of AIDS, NIAID, NIH from Dr. Douglas Richman. Cultures were maintained and used in suspension in tissue culture labware at 36-38° C. in a humidified atmosphere of 5-7% CO2.
Cytotoxicity Control: A 1.80 mL aliquot of the test substance was mixed with a 0.2 mL aliquot of test medium containing the BSA organic soil load, in lieu of virus, and treated as previously described. The cytotoxicity control was held for the ten minute exposure time. […] The cytotoxicity of the MT-2 cell cultures was scored at the same time as virus-test substance and virus control cultures. Cytotoxicity was graded on the basis of cell viability as determined microscopically. […]
Cells in the multiwall culture dishes were inoculated in quadruplicate with 0.2 mL of the dilutions prepared from test and control groups. […] The cultures were scored periodically for eight days for the absence or presence of CPE, cytotoxicity, and for viability.
(§2) Data analysis: Viral and cytotoxicity titers are expressed as −log 10 of the 50 percent titration endpoint for infectivity (TCID50) or cytotoxicity (TCD50), respectively, as calculated by the method of Spearman Karber: […]

[2] = test system: human immunodeficiency virus (HIV) Type I, strain HTLV-IIIB; test: Virucidal efficacy assay: virus suspension exposed to test composition, then titered by infectivity (CPE) in MT-2 cells; assay type: cell-based, HIV Type 1
Method: Composition Tested: A 20 mL vial of ammonium chloride (100 mEq/5 mL) was dissolved into a 1 liter bag of 0.9% sodium chloride injection USP (9 g/L sodium chloride; osmolarity of 308 mOsmol/L; 154 mEq/L sodium; 154 mEq/L chloride). The contents of the bag were transferred to a sterile glass bottle. The solution was equilibrated to room temperature prior to use.
Virus: human immunodeficiency virus (HIV) Type I, strain HTLV-IIIB, was obtained from Advanced Biotechnologies, Inc., Columbia, Md. Stock virus was prepared by collecting the supernatant culture fluid from infected culture cells. The cells were disrupted and cell debris removed by centrifugation at approximately 2200 RPM for ten minutes at room temperature. The supernatant was removed, aliquoted, and the high titer stock virus was stored at ≦−70° C. until the day of use. On the day of use, an aliquot of stock virus was removed, thawed, and maintained at a refrigerated temperature until used in the assay. The stock virus culture was adjusted to contain 5% fetal bovine serum as the organic soil lead.
as §1
Test Medium: The test medium used for the assay was RPMI 1640 supplemented with 10% (v/v) heat-inactivated fetal bovine serum (FBS). The medium was also supplemented with 2.0 mM L-glutamine and 50 μg/mL gentamicin.
Treatment of Virus Suspension: A 1.80 mL aliquot of the test substance was dispensed into a sterile tube and mixed with a 0.2 mL aliquot of the stock virus suspension. The mixture was vortex mixed for 10 seconds and held for the remainder of the specified exposure time at 37.0° C. The exposure time was ten minutes. Following the exposure time, a 0.1 mL aliquot was removed from the tube and the mixture was immediately titered by 10-fold serial dilution (0.1 mL+0.9 mL test medium) and assayed for the presence of virus in MT-2 cells. To decrease the test substance cytotoxicity, the first dilution was made in FBS with the remaining dilutions in test medium.
Treatment of Virus Control: A 0.2 mL aliquot of stock virus suspension was exposed to a 1.80 mL aliquot of test medium, in lieu of test substance, and treated as previously described. Following the exposure time, a 0.1 mL aliquot was removed from the tube and the mixture was immediately titered by 10-fold serial dilution (0.1 mL+0.9 mL test medium) and assayed for the presence of virus in MT-2 cells. All controls employed the FBS neutralizer as described in the Treatment of Virus Suspension section above. The virus control titer was used as a baseline to compare the percent and log reductions of the test parameter following exposure to the test substance.
Cells in the multiwall culture dishes were inoculated in quadruplicate with 0.2 mL of the dilutions prepared from test and control groups. Uninfected indicator cell cultures (cell controls) were inoculated with test medium alone. The cultures were incubated at 36-38° C. in a humidified atmosphere of 5-7% CO2 in sterile disposable cell culture labware. The cultures were scored periodically for eight days for the absence or presence of CPE, cytotoxicity, and for viability.
as §2
Calculation of Percent (%) Reduction:
Calculation of Log Reduction:
TCID50 of the virus control—TCID50 of the test substance=Log reduction Study Acceptance Criteria: A valid test required the following: (1) that stock virus be recovered from the virus control; (2) that the cell controls be negative for virus; and (3) that negative cultures are viable.

[3] = ten minute exposure at 37° C., 5% fetal bovine serum, compared to virus control

Cl.N [Ammonium Chloride, ammonium chloride]
Test substance cytotoxicity (not observed at any dilution tested) [1]: ≤ 1.5 log 10
Presence of test virus, four cultures ([2]; dilution 10^-2, after ten minute exposure): + + + +
Presence of test virus, four cultures ([2]; dilution 10^-3, after ten minute exposure): + + + +
Presence of test virus, four cultures ([2]; dilution 10^-4, after ten minute exposure): + + + +
Log10 Reduction in viral titer [2, 3]: 1.0 Log10
Percent Reduction in viral titer [2, 3]: 90.0%
Percent Reduction in viral titer ([2]; ten minute exposure at 37° C., 5% fetal bovine serum, compared to virus control, listed as ammonium chloride): 90%
test virus infectivity detected in the virus-test substance mixture ([2]; ten minute exposure at 37° C., virus control titer 6.0 log 10): 5.0 log 10
